Reference: ChEMBL document CHEMBL3044970, “Isoniazid: the magic molecule” (2012)
Values after ≈ are worked out from the molar mass of the structure shown.

How the values were obtained:
Type in all cases: functional
[1] = system: Mycobacterium tuberculosis; assay: Antimicrobial activity against Mycobacterium tuberculosis H37Rv
[2] = system: Mycobacterium tuberculosis; assay: Ratio of INH MIC to compound MIC for Mycobacterium tuberculosis H37Rv
[3] = system: Mycobacterium tuberculosis; assay: Antimicrobial activity against Mycobacterium tuberculosis H37Rv infected macrophage model
[4] = system: Mycobacterium tuberculosis; assay: Antimicrobial activity against Mycobacterium tuberculosis
[5] = system: Mycobacterium tuberculosis; assay: Antimicrobial activity against Mycobacterium tuberculosis H4
[6] = system: Mycobacterium tuberculosis; assay: Antimicrobial activity against Mycobacterium tuberculosis H37Rv by agar dilution method relative to isonicotinoyl hydrazide

Structure (SMILES)	MIC [1]	MIC [4]	MIC [5]	other results
COc1ccc(C2C(Cl)C(=O)N2NC(=O)c2ccncc2)cc1O (centres undefined)	0.31 µg/mL	–	–	–
COc1cc(C2=NN(C(=O)c3ccncc3)C(c3ccc(O)cc3)C2)ccc1OCC(=O)O (centres undefined)	0.12 µM	–	–	Ratio [2]: 5.6
O=C1NC(NNC(=O)c2ccncc2)=N/C1=C\c1cccc(Cl)c1	–	–	–	MIC [3]: 0.8 µg/mL (≈ 2.34 µM)
CO[C@H]1/C=C/O[C@@]2(C)Oc3c(C)c(O)c4c(O)c(c(/C=N/N5CCN(C)CC5)c(O)c4c3C2=O)NC(=O)/C(C)=C\C=C\[C@H](C)[C@H](O)[C@@H](C)[C@@H](O)[C@@H](C)[C@H](OC(C)=O)[C@@H]1C [RIFAMPIN]	0.2 µg/mL	–	–	–
Cc1ccccc1C1CC(c2ccccn2)=NN1C(=O)c1ccncc1 (centres undefined)	–	8 µg/mL (≈ 23.4 µM)	8 µg/mL (≈ 23.4 µM)	–
O=C(c1ccncc1)N1N=C(c2ccccn2)CC1c1cccc(Cl)c1 (centres undefined)	–	8 µg/mL (≈ 22 µM)	8 µg/mL (≈ 22 µM)	–
O=C(c1ccncc1)N1N=C(c2ccccn2)CC1c1ccccc1 (centres undefined)	–	8 µg/mL (≈ 24.4 µM)	8 µg/mL (≈ 24.4 µM)	–
O=C(c1ccncc1)N1N=C(c2ccccn2)CC1c1ccc(Cl)cc1 (centres undefined)	–	8 µg/mL (≈ 22 µM)	8 µg/mL (≈ 22 µM)	–
COc1ccc(C2SCC(=O)N2NC(=O)c2ccncc2)cc1O (centres undefined)	0.31 µg/mL	–	–	–
O=C(NNC(=S)Nc1ccccc1C(F)(F)F)c1ccncc1	0.58 µM	–	–	Ratio [6]: 1.24
NNC(=O)c1ccncc1 [ISONIAZID]	–	0.05 µg/mL (≈ 0.365 µM)	–	–
O=C(c1ccncc1)N1N=C(c2ccccn2)CC1c1ccccc1Cl (centres undefined)	–	8 µg/mL (≈ 22 µM)	8 µg/mL (≈ 22 µM)	–
